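Step 1: Grow cells in 96-well plates. Step 2: Expose to compound for 48 hours at 5 concentrations. Step 3: Interpolate endpoints linearly; if unreached, use highest concentration. The concentration for full growth arrest is given as TGI.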
What was measured:
Assay in all cases: growth of human tumour cells (NCI), 48 h
786-0 renal = test system: 786-0 renal
A498 renal = test system: A498 renal
A549 NSCLC = test system: A549 NSCLC
ACHN renal = test system: ACHN renal
BT-549 breast = test system: BT-549 breast
CAKI-1 renal = test system: CAKI-1 renal
CCRF-CEM leukemia = test system: CCRF-CEM leukemia
COLO 205 colon = test system: COLO 205 colon
DU-145 prostate = test system: DU-145 prostate
EKVX NSCLC = test system: EKVX NSCLC
HCT-116 colon = test system: HCT-116 colon
HCT-15 colon = test system: HCT-15 colon
HOP-62 NSCLC = test system: HOP-62 NSCLC
HOP-92 NSCLC = test system: HOP-92 NSCLC
HS 578T breast = test system: HS 578T breast
HT29 colon = test system: HT29 colon
IGROV1 ovarian = test system: IGROV1 ovarian
K-562 leukemia = test system: K-562 leukemia
KM12 colon = test system: KM12 colon
LOX IMVI melanoma = test system: LOX IMVI melanoma
M14 melanoma = test system: M14 melanoma
MALME-3M melanoma = test system: MALME-3M melanoma
MCF7 breast = test system: MCF7 breast
MDA-MB-231 breast = test system: MDA-MB-231 breast
MDA-MB-435 = test system: MDA-MB-435
MOLT-4 leukemia = test system: MOLT-4 leukemia
NCI-H226 lung = test system: NCI-H226 lung
NCI-H23 lung = test system: NCI-H23 lung
NCI-H460 lung = test system: NCI-H460 lung
NCI-H522 lung = test system: NCI-H522 lung
NCI/ADR-RES ovarian = test system: NCI/ADR-RES ovarian
OVCAR-3 ovarian = test system: OVCAR-3 ovarian
OVCAR-4 ovarian = test system: OVCAR-4 ovarian
OVCAR-5 ovarian = test system: OVCAR-5 ovarian
OVCAR-8 ovarian = test system: OVCAR-8 ovarian
PC-3 prostate = test system: PC-3 prostate
RPMI-8226 leukemia = test system: RPMI-8226 leukemia
RXF 393 renal = test system: RXF 393 renal
SF-268 CNS = test system: SF-268 CNS
SF-295 CNS = test system: SF-295 CNS
SF-539 CNS = test system: SF-539 CNS
SK-MEL-2 melanoma = test system: SK-MEL-2 melanoma
SK-MEL-28 melanoma = test system: SK-MEL-28 melanoma
SK-MEL-5 melanoma = test system: SK-MEL-5 melanoma
SK-OV-3 ovarian = test system: SK-OV-3 ovarian
SN12C renal = test system: SN12C renal
SNB-19 CNS = test system: SNB-19 CNS
SNB-75 CNS = test system: SNB-75 CNS
SR leukemia = test system: SR leukemia
SW-620 colon = test system: SW-620 colon
T-47D breast = test system: T-47D breast
TK-10 renal = test system: TK-10 renal
U251 CNS = test system: U251 CNS
UACC-257 melanoma = test system: UACC-257 melanoma
UACC-62 melanoma = test system: UACC-62 melanoma
UO-31 renal = test system: UO-31 renal
HCC-2998 colon = test system: HCC-2998 colon
HL-60(TB) leukemia = test system: HL-60(TB) leukemia

Nc1nc(-c2ccccc2N=NN2CCCC2)nc2ccccc12
TGI (786-0 renal): 4.77 µM | TGI (A498 renal): 20.2 µM | TGI (A549 NSCLC): 10.5 µM | TGI (ACHN renal): 11.7 µM | TGI (BT-549 breast): 24.1 µM | TGI (CAKI-1 renal): 18.5 µM | TGI (CCRF-CEM leukemia): 19.1 µM | TGI (COLO 205 colon): 10.4 µM | TGI (DU-145 prostate): 16.5 µM | TGI (EKVX NSCLC): 23.8 µM | TGI (HCT-116 colon): 2.55 µM | TGI (HCT-15 colon): 11.1 µM | TGI (HOP-62 NSCLC): 5.11 µM | TGI (HOP-92 NSCLC): 21.3 µM | TGI (HS 578T breast): 18 µM | TGI (HT29 colon): 10.8 µM | TGI (IGROV1 ovarian): 17.3 µM | TGI (K-562 leukemia): 10.2 µM | TGI (KM12 colon): 7.36 µM | TGI (LOX IMVI melanoma): 3.77 µM | TGI (M14 melanoma): 12.5 µM | TGI (MALME-3M melanoma): 13.5 µM | TGI (MCF7 breast): 55.9 µM | TGI (MDA-MB-231 breast): 3.63 µM | TGI (MDA-MB-435): 6.7 µM | TGI (MOLT-4 leukemia): 3.52 µM | TGI (NCI-H226 lung): 12.2 µM | TGI (NCI-H23 lung): 8.06 µM | TGI (NCI-H460 lung): 17.9 µM | TGI (NCI-H522 lung): 16.5 µM | TGI (NCI/ADR-RES ovarian): 12.2 µM | TGI (OVCAR-3 ovarian): 4.35 µM | TGI (OVCAR-4 ovarian): 19.1 µM | TGI (OVCAR-5 ovarian): 4.66 µM | TGI (OVCAR-8 ovarian): 3.77 µM | TGI (PC-3 prostate): 15.4 µM | TGI (RPMI-8226 leukemia): 6.46 µM | TGI (RXF 393 renal): 20.4 µM | TGI (SF-268 CNS): 21.5 µM | TGI (SF-295 CNS): 10.5 µM | TGI (SF-539 CNS): 5 µM | TGI (SK-MEL-2 melanoma): 28.8 µM | TGI (SK-MEL-28 melanoma): 25.2 µM | TGI (SK-MEL-5 melanoma): 17.8 µM | TGI (SK-OV-3 ovarian): 21.4 µM | TGI (SN12C renal): 3.43 µM | TGI (SNB-19 CNS): 16.5 µM | TGI (SNB-75 CNS): 23.8 µM | TGI (SR leukemia): 2.38 µM | TGI (SW-620 colon): 5.96 µM | TGI (T-47D breast): 19.4 µM | TGI (TK-10 renal): 14.5 µM | TGI (U251 CNS): 8.91 µM | TGI (UACC-257 melanoma): 14.9 µM | TGI (UACC-62 melanoma): 3.77 µM | TGI (UO-31 renal): 3.43 µM

O=C(CSCC(=O)N/N=C/c1cccs1)N/N=C/c1cccs1
TGI (786-0 renal): > 100 µM | TGI (A498 renal): > 100 µM | TGI (A549 NSCLC): > 100 µM | TGI (ACHN renal): > 100 µM | TGI (BT-549 breast): > 100 µM | TGI (CAKI-1 renal): > 100 µM | TGI (CCRF-CEM leukemia): > 100 µM | TGI (DU-145 prostate): > 100 µM | TGI (EKVX NSCLC): > 100 µM | TGI (HCC-2998 colon): > 100 µM | TGI (HCT-116 colon): > 100 µM | TGI (HCT-15 colon): > 100 µM | TGI (HL-60(TB) leukemia): > 100 µM | TGI (HOP-62 NSCLC): > 100 µM | TGI (HOP-92 NSCLC): > 100 µM | TGI (HS 578T breast): > 100 µM | TGI (HT29 colon): > 100 µM | TGI (IGROV1 ovarian): > 100 µM | TGI (K-562 leukemia): > 100 µM | TGI (KM12 colon): > 100 µM | TGI (LOX IMVI melanoma): > 100 µM | TGI (M14 melanoma): > 100 µM | TGI (MALME-3M melanoma): > 100 µM | TGI (MCF7 breast): > 100 µM | TGI (MDA-MB-231 breast): > 100 µM | TGI (MDA-MB-435): > 100 µM | TGI (MOLT-4 leukemia): > 100 µM | TGI (NCI-H226 lung): > 100 µM | TGI (NCI-H23 lung): > 100 µM | TGI (NCI-H460 lung): > 100 µM | TGI (NCI-H522 lung): > 100 µM | TGI (NCI/ADR-RES ovarian): > 100 µM | TGI (OVCAR-3 ovarian): > 100 µM | TGI (OVCAR-4 ovarian): > 100 µM | TGI (OVCAR-5 ovarian): > 100 µM | TGI (OVCAR-8 ovarian): > 100 µM | TGI (PC-3 prostate): > 100 µM | TGI (RPMI-8226 leukemia): > 100 µM | TGI (RXF 393 renal): > 100 µM | TGI (SF-268 CNS): > 100 µM | TGI (SF-295 CNS): > 100 µM | TGI (SF-539 CNS): > 100 µM | TGI (SK-MEL-2 melanoma): > 100 µM | TGI (SK-MEL-28 melanoma): > 100 µM | TGI (SK-MEL-5 melanoma): > 100 µM | TGI (SK-OV-3 ovarian): > 100 µM | TGI (SN12C renal): > 100 µM | TGI (SNB-19 CNS): > 100 µM | TGI (SNB-75 CNS): > 100 µM | TGI (SW-620 colon): > 100 µM | TGI (T-47D breast): > 100 µM | TGI (TK-10 renal): > 100 µM | TGI (U251 CNS): > 100 µM | TGI (UACC-257 melanoma): > 100 µM | TGI (UACC-62 melanoma): > 100 µM | TGI (UO-31 renal): > 100 µM

— PubChem BioAssay (NCI)
